One compound from publication PMC5618429, “Kempopeptin C, a Novel Marine-Derived Serine Protease Inhibitor Targeting Invasive Breast Cancer” (Marine Drugs, 2017) can be followed below.

For assay [1], the target named is T1, recombinant human matriptase (Homo sapiens, UniProt Q9Y5Y6).
T1 construct: purchased R&D Systems 3946-SE-010
T1 sequence (Q9Y5Y6 615-855 limits assumed): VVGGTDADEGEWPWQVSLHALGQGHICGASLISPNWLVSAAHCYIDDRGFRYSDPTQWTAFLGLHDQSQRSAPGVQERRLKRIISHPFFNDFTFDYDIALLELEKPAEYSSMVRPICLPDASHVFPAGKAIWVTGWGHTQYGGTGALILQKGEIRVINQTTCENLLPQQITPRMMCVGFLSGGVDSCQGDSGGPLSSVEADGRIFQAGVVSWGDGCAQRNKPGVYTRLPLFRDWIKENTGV
Description: In vitro cleavage of desmoglein-2 by matriptase (SDS-PAGE, silver stain, densitometry). Type of assay: biochemical. Conditions: 3 h; for Inhibition of in vitro cleavage of Dsg-2 by matriptase: enzyme to substrate ratio 1:5, pH 9.0, 37 °C, 10‒0.01 µM inhibitor, qualitative. As for the experimental part: Figure 4 The effect of kempopeptin C (3) on the in vitro cleavage of CDCP1 and desmoglein-2 (Dsg-2) by matriptase. (A,B) Incubation of recombinant human CDCP1 with recombinant human matriptase (enzyme to substrate ratio 1:5) in 50 mM Tris, 50 mM NaCl, 0.01% Tween 20 (pH 9.0) at 37 °C for 30 min and 2 h in the presence and absence of different concentrations (10‒0.01 µM) of kempopeptin C (3). (C) Incubation of recombinant human Dsg-2 with recombinant human matriptase (enzyme to substrate ratio 1:5) in 50 mM Tris, 50 mM NaCl, 0.01% tween 20 (pH 9.0) at 37 °C for 3 h in the presence and absence of different concentrations (10‒0.01 µM) of kempopeptin C (3). Fragments were separated on SDS-PAGE under reducing conditions and silver stained. (D) Densitometric analysis of Dsg-2 bands in the SDS-PAGE in […].
Among the earliest events in cancer metastasis is the loss of intracellular adhesion. Desmosomes are adhesive molecules localized at the cell membrane acting as an anchor for intermediate filaments in addition to being adhesive intracellular junctions. Desmogleins (Dsg 1‒4) and desmocollins (Dsc 1‒3), comprising the core of the desmosomal adhesive complex, are glycoproteins and members of the cadherin superfamily of proteins. Desmogleins have been reported to be aberrantly expressed in several cancers and substrates of several proteases. Dsg-2 is known to be a substrate of kallikrein 7 (KLK7) and harbors a cleavage site for matriptase. We therefore investigated the cleavage of Dsg-2 by matriptase in vitro and the ability of kempopeptin C (3) to inhibit or reduce this cleavage. Matriptase and Dsg-2 were incubated for 3 h at 37 °C in assay buffer (final molar ratio 1:5) in the presence of different concentrations of kempopeptin C (3) or solvent control (Figure 4C). The resulting protein fragments were separated by SDS-PAGE and subjected to silver staining. […] The incomplete cleavage of Dsg-2 by matriptase might be due to the relative affinity of kempopeptin C (3) to matriptase, such that it can block the cleavage of some low affinity bands, but have no effects on others. […]

Assay [2] has as its system MDA-MB-231 cells. Description: Transwell migration assay. The assay is classed as cell-based. Conditions: Homo sapiens, MDA-MB-231, 48 h. The method, then:
The significance of our compounds in inhibiting matriptase and targeting its downstream cellular substrates was evaluated by examining the effect of kempopeptin C (3) on the migration of highly invasive breast cancer cells. The effect on migration was investigated by treating MDA-MB-231 cells with different concentrations of the test compound or solvent control for 48 h. Following 48 h, migrated cells were stained with crystal violet, and the number was counted under the microscope. […] To rule out that proteasome inhibition might be responsible for the migration inhibitory activity, the effect of kempopeptin C (3) on the trypsin-like activity of proteasomes was tested in vitro.
Figure 7 The effect of kempopeptin C (3) on the migration of MDA-MB-231. MDA-MB-231 were incubated for 48 h in the presence of different concentrations (0, 10 or 20 µM) of 3 and the effect was compared to the solvent control. The graph represents the number of migrated cells in each treatment group. The asterisks denote the significance of p ≤ 0.01 relative to the solvent control using the two-tailed unpaired t-test. Data are presented as the mean ± SD, n = 3.
The migration assays were performed using BD falcon cell culture inserts (353097; PET membrane, 8-µm pore size; Fisher Scientific; Waltham, MA, USA) in 24-well plates. […]

As for `CCCC(=O)NC(C(=O)NC1C(=O)NC(CCCCN)C(=O)NC2CCC(O)N(C2=O)C(C(C)CC)C(=O)N(C)C(Cc2ccc(OC)c(Cl)c2)C(=O)NC(C(C)C)C(=O)OC1C)C(C)C` (centres unmarked) [Kempopeptin C, kempopeptin C], the “Densitometry of full-length Dsg-2 (Band 1)” value in assay [1] (37 °C, compared to lower concentrations of the inhibitor) was “higher intensity of the full-length Dsg-2 (Band 1) in the presence of 10, 1 and 0.1 µM”. Besides, the “Inhibition of in vitro cleavage of Dsg-2 by matriptase” value in assay [1] is listed as “inhibit the cleavage”; in assay [1] (listed as Kempopeptin C (3)), “slight dose-dependent reduction in the cleavage of Dsg-2”. Also, the inhibition (commonly the relative decrease from the control value, in per cent) at 10 µM in assay [2] (MDA-MB-231, 10 µM) worked out at 37%. This compound came in with an inhibition at 20 µM in assay [2] (MDA-MB-231, 20 µM) of 60%.
